Assay results as given in patent publication US20060069132A1, “Azolecarboxamide herbicides” (priority 2004, published 2006).

What was measured:
[1] = system: rice; experiment: Test C flooded paddy test; type: in vivo, Oryza sativa; conditions: for Plant response rating, Rice: 500 g ai/ha, visual rating after 12 to 14 days
How it was run: (§1)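 Plants were grown to the 1- to 4-leaf stage (2–18 cm) and then treated postemergence, or grown to the 2-leaf stage for the flooded paddy test. They were held in a greenhouse for 12 to 14 days and then scored by eye against controls, where 0 is no effect and 100 is complete control.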

[2] = system: ducksalad; experiment: Test C flooded paddy test; type: in vivo, Heteranthera limosa; conditions: for Plant response rating, Ducksalad: 500 g ai/ha, visual rating after 12 to 14 days
[3] = system: rice; experiment: Test B flooded paddy test; type: in vivo, Oryza sativa; conditions: 1000 g ai/ha, scale 0 to 100 (0 no effect, 100 complete control)
How it was run: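 Scale 0–100: zero equals no visible effect, 100 complete control, judged by eye relative to controls. Timing: 13 to 15 days in greenhouse post-treatment. Growth stage at spraying: two leaves (paddy) or one to four leaves, 2–18 cm (postemergence).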

[4] = system: large crabgrass; experiment: Test B pre-/postemergence herbicide test; type: in vivo, Digitaria sanguinalis
How it was run: (§2)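 Formulation: non-phytotoxic solvent mix with surfactant. Timing: preemergence on seed and postemergence on 2–18 cm plants, applied concurrently. Readout after 13–15 d greenhouse: visual 0–100 control rating against controls.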

[5] = system: barnyardgrass; experiment: Test B flooded paddy test; type: in vivo, Echinochloa crus-galli; conditions: 1000 g ai/ha, scale 0 to 100 (0 no effect, 100 complete control)
How it was run: (§3)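 Postemergence plants were sprayed with formulated test chemicals at 2 to 18 cm height (1- to 4-leaf stage); paddy species were grown to the 2-leaf stage. After 13 to 15 days in a greenhouse, injury was rated visually against untreated controls on a 0–100 scale (0 = no effect, 100 = complete control).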

[6] = system: Surinam grass; experiment: Test B pre-/postemergence herbicide test; type: in vivo, Urochloa decumbens
How it was run: as §2

[7] = system: blackgrass; experiment: Test B postemergence herbicide test; type: in vivo, Alopecurus myosuroides
How it was run: as §3

[8] = system: smallflower umbrella sedge; experiment: Test C flooded paddy test; type: in vivo, Cyperus difformis; conditions: for Plant response rating, Sedge, Umbrella: 500 g ai/ha, visual rating after 12 to 14 days
[9] = system: cocklebur; experiment: Test B pre-/postemergence herbicide test; type: in vivo, Xanthium strumarium
How it was run: (§4)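 Seeds were planted and treated preemergence with compounds formulated in a non-phytotoxic solvent mixture containing surfactant, while plants at the 1- to 4-leaf stage (2 to 18 cm) received postemergence sprays. Flooded paddy plants were grown to the 2-leaf stage. After 13 to 15 days in a greenhouse, injury was visually rated 0–100 against untreated controls.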

[10] = system: velvetleaf; experiment: Test B pre-/postemergence herbicide test; type: in vivo, Abutilon theophrasti
How it was run: as §2

[11] = system: morningglory; experiment: Test B pre-/postemergence herbicide test; type: in vivo, Ipomoea coccinea
How it was run: as §4

[12] = system: giant foxtail; experiment: Test B pre-/postemergence herbicide test; type: in vivo, Setaria faberi
How it was run: as §2

[13] = system: corn; experiment: Test B pre-/postemergence herbicide test; type: in vivo, Zea mays
How it was run: as §2

[14] = system: barnyardgrass; experiment: Test B pre-/postemergence herbicide test; type: in vivo, Echinochloa crus-galli
How it was run: as §4

[15] = system: lambsquarters; experiment: Test B pre-/postemergence herbicide test; type: in vivo, Chenopodium album
How it was run: as §2

[16] = system: pigweed; experiment: Test B pre-/postemergence herbicide test; type: in vivo, Amaranthus retroflexus
How it was run: as §2

[17] = system: barnyardgrass; experiment: Test C flooded paddy test; type: in vivo, Echinochloa crus-galli; conditions: for Plant response rating, Barnyardgrass: 500 g ai/ha, visual rating after 12 to 14 days
How it was run: as §1

[18] = system: wild oat; experiment: Test B postemergence herbicide test; type: in vivo, Avena fatua
How it was run: (§5)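 Greenhouse test; postemergence application to plants at 1–4 leaves (2–18 cm); paddy species at 2 leaves; evaluated visually vs controls at 13–15 days; scale 0–100 (100 = complete control).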

[19] = system: rice; experiment: Test B pre-/postemergence herbicide test; type: in vivo, Oryza sativa; conditions: preemergence
How it was run: as §2

[20] = system: wheat; experiment: Test B postemergence herbicide test; type: in vivo, Triticum aestivum; design: key to Wheat plant response rating: 0 = no effect, 100 = complete control
How it was run: as §5

[21] = system: small flower umbrella sedge; experiment: Test B flooded paddy test; type: in vivo, Cyperus difformis; conditions: 1000 g ai/ha, scale 0 to 100 (0 no effect, 100 complete control)
How it was run: as §3

[22] = system: ducksalad; experiment: Test B flooded paddy test; type: in vivo, Heteranthera limosa; conditions: 1000 g ai/ha, scale 0 to 100 (0 no effect, 100 complete control)
How it was run: as §3

[23] = 125 g ai/ha, scale 0 to 100 (0 no effect, 100 complete control)
[24] = 250 g ai/ha, scale of 0 to 100, 0 is no effect, 100 is complete control
[25] = scale 0 to 100 (0 no effect, 100 complete control)
[26] = 125 g ai/ha, 0 is no effect, 100 is complete control, preemergence
[27] = 125 g ai/ha, visual rating, scale 0 (no effect) to 100 (complete control), postemergence
[28] = 500 g ai/ha, visual rating, 0 = no effect, 100 = complete control, preemergence
[29] = postemergence, 500 g ai/ha, scale 0 to 100, 0 is no effect, 100 is complete control
[30] = 125 g ai/ha; 0 is no effect, 100 is complete control; preemergence
[31] = 125 g ai/ha; visual rating, scale 0 (no effect) to 100 (complete control); postemergence
[32] = 500 g ai/ha; visual rating, 0 = no effect, 100 = complete control; preemergence
[33] = postemergence, 500 g ai/ha; scale 0 to 100, 0 is no effect, 100 is complete control
[34] = 62 g ai/ha, scale 0 to 100 (0 no effect, 100 complete control)
[35] = 125 g ai/ha, scale of 0 to 100, 0 is no effect, 100 is complete control
[36] = Postemergence, 500 g ai/ha, visual rating after 13 to 15 days, scale 0 (no effect) to 100 (complete control)
[37] = Preemergence, 500 g ai/ha, scale 0 to 100
[38] = postemergence, 125 g ai/ha, visual rating, scale 0 (no effect) to 100 (complete control)
[39] = preemergence, 125 g ai/ha, 0 to 100 scale, 0 is no effect, 100 is complete control
[40] = Postemergence, 500 g ai/ha; visual rating after 13 to 15 days, scale 0 (no effect) to 100 (complete control)
[41] = postemergence, 125 g ai/ha; visual rating, scale 0 (no effect) to 100 (complete control)
[42] = preemergence, 125 g ai/ha; 0 to 100 scale, 0 is no effect, 100 is complete control

CCN1N=C(C(C)(C)C)CC1C(=O)Nc1cc(C(=O)N2CCCCC2)ccc1F (racemic) [Compound 331]
30: Cocklebur plant response rating [9, 29] | Foxtail, Giant plant response rating [12, 29] | Oat, Wild plant response rating [18, 33] | Plant response rating (0 to 100 scale), Rice ([19]; 125 g ai/ha, 0 is no effect, 100 is complete control)
40: Plant response rating (0 to 100 scale), Surinam Grass [6, 30] | Plant response rating, Corn [13, 28] | Plant response rating (0 to 100 scale), Pigweed [16, 30] | Barnyardgrass plant response rating [17, 24] | Plant response rating, Rice ([19]; 500 g ai/ha, visual rating, 0 = no effect, 100 = complete control)
85: Plant response rating, Ducksalad [2, 25]
60: Rice plant response rating [3] | Plant response rating (0 to 100 scale), Crabgrass, Large [4, 26] | Plant response rating, Surinam Grass [6, 32] | Plant response rating (0 to 100 scale), Barnyardgrass [14, 26] | Lambsquarters plant response rating [15, 31]
0: Rice plant response rating ([1]; 62 g ai/ha, scale 0 to 100) | Ducksalad plant response rating ([2]; 62 g ai/ha, scale 0 to 100) | Sedge, Umbrella plant response rating ([8]; 62 g ai/ha, scale 0 to 100) | Plant response rating (0 to 100 scale), Cocklebur [9, 26] | Plant response rating, Cocklebur [9, 28] | Plant response rating (0 to 100 scale), Morningglory [11, 30] | Morningglory plant response rating [11, 31] | Plant response rating, Morningglory [11, 32] | Foxtail, Giant plant response rating [12, 27] | Corn plant response rating [13, 27] | Corn plant response rating [13, 29] | Barnyardgrass plant response rating [17, 34]
65: Plant response rating, Rice [1, 25] | Ducksalad plant response rating [2, 24] | Plant response rating, Sedge, Umbrella [8, 25] | Plant response rating, Barnyardgrass [17, 25]
15: Rice plant response rating [1, 23]
25: Sedge, Umbrella plant response rating [8, 24]
90: Sedge, Umbrella plant response rating [21] | Ducksalad plant response rating [22]
80: Plant response rating, Crabgrass, Large [4, 28] | Barnyardgrass plant response rating [5] | Plant response rating, Velvetleaf [10, 32] | Plant response rating, Foxtail, Giant [12, 28]
100: Plant response rating, Lambsquarters [15, 32]
50: Rice plant response rating [1, 24] | Ducksalad plant response rating [2, 23] | Plant response rating, Pigweed [16, 32] | Pigweed plant response rating [16, 33]
70: Plant response rating, Barnyardgrass [14, 28] | Lambsquarters plant response rating [15, 33]
10: Crabgrass, Large plant response rating [4, 27] | Crabgrass, Large plant response rating [4, 29] | Surinam Grass plant response rating [6, 31] | Blackgrass plant response rating [7, 31] | Cocklebur plant response rating [9, 27] | Velvetleaf plant response rating [10, 31] | Morningglory plant response rating [11, 33] | Barnyardgrass plant response rating [14, 27] | Pigweed plant response rating [16, 31] | Barnyardgrass plant response rating [17, 23] | Oat, Wild plant response rating [18, 31]
20: Surinam Grass plant response rating [6, 33] | Blackgrass plant response rating [7, 33] | Sedge, Umbrella plant response rating [8, 23] | Plant response rating (0 to 100 scale), Velvetleaf [10, 30] | Velvetleaf plant response rating [10, 33] | Plant response rating (0 to 100 scale), Foxtail, Giant [12, 26] | Plant response rating (0 to 100 scale), Corn [13, 26] | Barnyardgrass plant response rating [14, 29] | Wheat plant response rating [20, 31] | Wheat plant response rating [20, 33]

CCn1nc(C(C)(C)C)cc1C(=O)Nc1cc(C(=O)OC)c(OC)cc1F [Compound 75]
90: Rice plant response rating ([3]; visual rating, 13 to 15 days) | Foxtail, Giant plant response rating [12, 37] | Barnyardgrass plant response rating [14, 37] | Ducksalad plant response rating ([22]; visual rating, 13 to 15 days)
50: Plant response rating, Morningglory [11, 40] | Plant response rating, Barnyardgrass [14, 39] | Pigweed plant response rating [16, 41] | Plant response rating, Pigweed [16, 42]
40: Plant response rating, Lambsquarters [15, 40] | Lambsquarters plant response rating [15, 41] | Plant response rating, Oat, Wild [18, 40] | Plant response rating, Rice ([19]; 125 g ai/ha, 0 to 100 scale, 0 is no effect, 100 is complete control)
25: Rice plant response rating [1, 35] | Barnyardgrass plant response rating [17, 35]
10: Plant response rating, Crabgrass, Large [4, 36] | Crabgrass, Large plant response rating [4, 38] | Plant response rating, Crabgrass, Large [4, 39] | Surinam Grass plant response rating [6, 41] | Blackgrass plant response rating [7, 41] | Cocklebur plant response rating [9, 37] | Cocklebur plant response rating [9, 38] | Corn plant response rating [13, 38] | Barnyardgrass plant response rating [14, 38] | Oat, Wild plant response rating [18, 41] | Wheat plant response rating [20, 41]
65: Plant response rating, Rice [1, 25] | Ducksalad plant response rating [2, 24] | Barnyardgrass plant response rating [17, 24]
20: Plant response rating, Surinam Grass [6, 40] | Plant response rating, Velvetleaf [10, 40] | Velvetleaf plant response rating [10, 41] | Plant response rating, Velvetleaf [10, 42] | Morningglory plant response rating [11, 41] | Plant response rating, Foxtail, Giant [12, 36] | Foxtail, Giant plant response rating [12, 38] | Plant response rating, Corn [13, 36] | Plant response rating, Barnyardgrass [14, 36] | Plant response rating, Lambsquarters [15, 42] | Plant response rating, Wheat [20, 40]
55: Rice plant response rating [1, 24]
70: Plant response rating, Ducksalad [2, 25] | Crabgrass, Large plant response rating [4, 37] | Sedge, Umbrella plant response rating [8, 34] | Plant response rating, Pigweed [16, 40] | Plant response rating, Barnyardgrass [17, 25] | Sedge, Umbrella plant response rating ([21]; visual rating, 13 to 15 days)
0: Rice plant response rating [1, 34] | Ducksalad plant response rating [2, 34] | Plant response rating, Cocklebur [9, 39] | Plant response rating, Morningglory [11, 42] | Plant response rating, Corn [13, 39] | Barnyardgrass plant response rating [17, 34]
30: Ducksalad plant response rating [2, 35] | Plant response rating, Surinam Grass [6, 42] | Plant response rating, Blackgrass [7, 40] | Plant response rating, Cocklebur [9, 36] | Plant response rating, Foxtail, Giant [12, 39] | Corn plant response rating [13, 37]
80: Barnyardgrass plant response rating ([5]; visual rating, 13 to 15 days) | Sedge, Umbrella plant response rating [8, 24]
75: Sedge, Umbrella plant response rating [8, 35]
85: Plant response rating, Sedge, Umbrella [8, 25]
